# Results taken from the supplement of paper PMC9938120.
# Legend:
# Test in all cases: drug sensitivity score (DSS3, normalised partial AUC of % inhibition dose-response) (DSS (score)); higher = more sensitive (stronger inhibition of viability); extreme values may be limits of the assay
# FMOC28 = patient-derived low-grade serous ovarian cancer cells; conditions: 72 h; library: FO5A; assay format: 2D, 384-well, CellTiter-Glo
# Method in brief: (§1)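 Early-passage (under 10) patient-derived ovarian cancer cells were dispensed onto 384-well flat clear-bottom plates pre-plated with compounds at five concentrations spanning a 10,000-fold range, then incubated 72 h at 37 °C, 5% CO2. Viability was read with CellTiter-Glo, and the data were processed in Breeze. The drug sensitivity score is a partial area under the percent-inhibition dose-response curve divided by the log of the upper asymptote, with higher values meaning greater sensitivity.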
# FMOC02_2 = patient-derived low-grade serous ovarian cancer cells; conditions: 72 h; library: FO5A; assay format: 2D, 384-well, CellTiter-Glo
# Method in brief: as §1
# FMOC06 = patient-derived mucinous ovarian cancer cells; conditions: 72 h; library: FO5A; assay format: 2D, 384-well, CellTiter-Glo
# Method in brief: as §1
# FMOC25_2 = patient-derived low-grade serous ovarian cancer cells; conditions: 72 h; library: FO5A; assay format: 2D, 384-well, CellTiter-Glo
# Method in brief: as §1
# FMOC14 = patient-derived high-grade serous ovarian cancer cells; conditions: 72 h; library: FO5A; assay format: 2D, 384-well, CellTiter-Glo
# Method in brief: as §1
# FMOC11 = patient-derived high-grade serous ovarian cancer cells; conditions: 72 h; library: FO5A; assay format: 2D, 384-well, CellTiter-Glo
# Method in brief: as §1
# FMOC24 = patient-derived high-grade serous ovarian cancer cells; conditions: 72 h; library: FO5A; assay format: 2D, 384-well, CellTiter-Glo
# Method in brief: as §1
# FMOC04 = patient-derived high-grade serous ovarian cancer cells; conditions: 72 h; library: FO5A; assay format: 2D, 384-well, CellTiter-Glo
# Method in brief: as §1
# FMOC03 = patient-derived mucinous ovarian cancer cells; conditions: 72 h; library: FO5A; assay format: 2D, 384-well, CellTiter-Glo
# Method in brief: as §1
# FMOC25_1 = patient-derived low-grade serous ovarian cancer cells; conditions: 72 h; library: FO4B; assay format: 2D, 384-well, CellTiter-Glo
# Method in brief: as §1
# FMOC09 = patient-derived high-grade serous ovarian cancer cells; conditions: 72 h; library: FO5A; assay format: 2D, 384-well, CellTiter-Glo
# Method in brief: as §1
# FMOC02_3 = patient-derived low-grade serous ovarian cancer cells; conditions: 72 h; library: FO5A; assay format: 2D, 384-well, CellTiter-Glo
# Method in brief: as §1
# FMOC17 = patient-derived low-grade serous ovarian cancer cells; conditions: 72 h; library: FO5A; assay format: 2D, 384-well, CellTiter-Glo
# Method in brief: as §1
# FMOC27 = patient-derived low-grade serous ovarian cancer cells; conditions: 72 h; library: FO5A; assay format: 2D, 384-well, CellTiter-Glo
# Method in brief: as §1
# FMOC02_1 = patient-derived low-grade serous ovarian cancer cells; conditions: 72 h; library: FO5A; assay format: 2D, 384-well, CellTiter-Glo
# Method in brief: as §1
# FMOC22 = patient-derived mucinous ovarian cancer cells; conditions: 72 h; library: FO5A; assay format: 2D, 384-well, CellTiter-Glo
# Method in brief: as §1
smiles,measurement,setting,value
CCn1c(C(=O)N(C2CC2)C2CC2)cc2c3c(ncn3C)c(Nc3cc(C)n(C)n3)nc21,drug sensitivity score,FMOC28,0.9
same,drug sensitivity score,FMOC02_2,1.4
same,drug sensitivity score,FMOC06,0
same,drug sensitivity score,FMOC25_2,0.4
same,drug sensitivity score,FMOC14,0
same,drug sensitivity score,FMOC11,0.1
same,drug sensitivity score,FMOC24,1.05
same,drug sensitivity score,FMOC04,0
same,drug sensitivity score,FMOC03,0.9
same,drug sensitivity score,FMOC25_1,0
same,drug sensitivity score,FMOC09,2.1
same,drug sensitivity score,FMOC02_3,4.7
same,drug sensitivity score,FMOC17,2.8
same,drug sensitivity score,FMOC27,0.8
same,drug sensitivity score,FMOC02_1,0.6
same,drug sensitivity score,FMOC22,0
Nc1nc(N)c2nc(-c3cccc(O)c3)c(-c3cccc(O)c3)nc2n1 [TG100-115],drug sensitivity score,FMOC28,0
same,drug sensitivity score,FMOC02_2,0
same,drug sensitivity score,FMOC06,0.4
same,drug sensitivity score,FMOC25_2,0.7
same,drug sensitivity score,FMOC14,0.7
same,drug sensitivity score,FMOC11,0.4
same,drug sensitivity score,FMOC24,0.1
same,drug sensitivity score,FMOC04,0
same,drug sensitivity score,FMOC03,0.1
same,drug sensitivity score,FMOC25_1,0
same,drug sensitivity score,FMOC09,0.3
same,drug sensitivity score,FMOC02_3,1.4
same,drug sensitivity score,FMOC17,1.1
same,drug sensitivity score,FMOC27,0
same,drug sensitivity score,FMOC02_1,0
same,drug sensitivity score,FMOC22,0
Cc1cccc(-c2[nH]c(CNc3ccccc3F)nc2-c2ccc3ncnn3c2)n1 [TEW-7197],drug sensitivity score,FMOC28,0
same,drug sensitivity score,FMOC02_2,1.8
same,drug sensitivity score,FMOC06,3.9
same,drug sensitivity score,FMOC25_2,0
same,drug sensitivity score,FMOC14,0
same,drug sensitivity score,FMOC11,0.4
same,drug sensitivity score,FMOC24,0.85
same,drug sensitivity score,FMOC04,0
same,drug sensitivity score,FMOC03,0
same,drug sensitivity score,FMOC25_1,0
same,drug sensitivity score,FMOC09,0
same,drug sensitivity score,FMOC02_3,0.1
same,drug sensitivity score,FMOC17,0
same,drug sensitivity score,FMOC27,0.2
same,drug sensitivity score,FMOC02_1,0
same,drug sensitivity score,FMOC22,0
Cc1cc([C@@H](C)Nc2ccccc2C(=O)O)c2nc(N3CCOCC3)cc(=O)n2c1 [AZD-6482],drug sensitivity score,FMOC28,0
same,drug sensitivity score,FMOC02_2,0.6
same,drug sensitivity score,FMOC06,0
same,drug sensitivity score,FMOC25_2,0.8
same,drug sensitivity score,FMOC14,0.4
same,drug sensitivity score,FMOC11,0.9
same,drug sensitivity score,FMOC24,0.5
same,drug sensitivity score,FMOC04,0
same,drug sensitivity score,FMOC03,0.5
same,drug sensitivity score,FMOC25_1,2.5
same,drug sensitivity score,FMOC09,0.1
same,drug sensitivity score,FMOC02_3,2.3
same,drug sensitivity score,FMOC17,2.8
same,drug sensitivity score,FMOC27,0
same,drug sensitivity score,FMOC02_1,0
same,drug sensitivity score,FMOC22,0
N#Cc1ccc(COC[C@H]2O[C@@H](n3c(NCc4ccc(Cl)c(Cl)c4)nc4c(N)ncnc43)[C@H](O)[C@@H]2O)cc1,drug sensitivity score,FMOC28,0
same,drug sensitivity score,FMOC02_2,2.6
same,drug sensitivity score,FMOC06,5.5
same,drug sensitivity score,FMOC25_2,0
same,drug sensitivity score,FMOC14,2.5
same,drug sensitivity score,FMOC11,3.2
same,drug sensitivity score,FMOC24,2.1
same,drug sensitivity score,FMOC04,0.95
same,drug sensitivity score,FMOC03,6
same,drug sensitivity score,FMOC25_1,6.6
same,drug sensitivity score,FMOC09,2
same,drug sensitivity score,FMOC02_3,6.6
same,drug sensitivity score,FMOC17,5.6
same,drug sensitivity score,FMOC27,1.6
same,drug sensitivity score,FMOC02_1,7.6
same,drug sensitivity score,FMOC22,4.2
COc1cc(Nc2ncc(F)c(Nc3ccc4c(n3)N(COP(=O)(O)O)C(=O)C(C)(C)O4)n2)cc(OC)c1OC [Fostamatinib],drug sensitivity score,FMOC28,1.9
same,drug sensitivity score,FMOC02_2,3.5
same,drug sensitivity score,FMOC06,2.6
same,drug sensitivity score,FMOC25_2,6.6
same,drug sensitivity score,FMOC14,0
same,drug sensitivity score,FMOC11,2.6
same,drug sensitivity score,FMOC24,3.6
same,drug sensitivity score,FMOC04,0
same,drug sensitivity score,FMOC03,2.3
same,drug sensitivity score,FMOC25_1,8.6
same,drug sensitivity score,FMOC09,1.2
same,drug sensitivity score,FMOC02_3,7.6
same,drug sensitivity score,FMOC17,3.4
same,drug sensitivity score,FMOC27,1.1
same,drug sensitivity score,FMOC02_1,6.7
same,drug sensitivity score,FMOC22,0.4
CC(C)C(=O)Nc1ccc([N+](=O)[O-])c(C(F)(F)F)c1 [Flutamide],drug sensitivity score,FMOC28,0
same,drug sensitivity score,FMOC02_2,0
same,drug sensitivity score,FMOC06,0
same,drug sensitivity score,FMOC25_2,0
same,drug sensitivity score,FMOC14,0
same,drug sensitivity score,FMOC11,0
same,drug sensitivity score,FMOC24,2.1
same,drug sensitivity score,FMOC04,0.05
same,drug sensitivity score,FMOC03,0
same,drug sensitivity score,FMOC25_1,0
same,drug sensitivity score,FMOC09,0
same,drug sensitivity score,FMOC02_3,0
same,drug sensitivity score,FMOC17,0
same,drug sensitivity score,FMOC27,0
same,drug sensitivity score,FMOC02_1,0
same,drug sensitivity score,FMOC22,0
O=C(O)CNC(=O)c1c(O)c2ccccc2n(Cc2ccccc2)c1=O [IOX-2],drug sensitivity score,FMOC28,3.2
same,drug sensitivity score,FMOC02_2,0.5
same,drug sensitivity score,FMOC06,0
same,drug sensitivity score,FMOC25_2,0.9
same,drug sensitivity score,FMOC14,0
same,drug sensitivity score,FMOC11,0
same,drug sensitivity score,FMOC24,1.75
same,drug sensitivity score,FMOC04,0
same,drug sensitivity score,FMOC03,0
same,drug sensitivity score,FMOC25_1,0
same,drug sensitivity score,FMOC09,0
same,drug sensitivity score,FMOC02_3,0
same,drug sensitivity score,FMOC17,0
same,drug sensitivity score,FMOC27,0
same,drug sensitivity score,FMOC02_1,0.5
same,drug sensitivity score,FMOC22,0
CN(c1ncccc1CNc1nc(Nc2ccc3c(c2)CC(=O)N3)ncc1C(F)(F)F)S(C)(=O)=O,drug sensitivity score,FMOC28,7.9
same,drug sensitivity score,FMOC02_2,9.4
same,drug sensitivity score,FMOC06,6.6
same,drug sensitivity score,FMOC25_2,7.8
same,drug sensitivity score,FMOC14,3.6
same,drug sensitivity score,FMOC11,4.9
same,drug sensitivity score,FMOC24,5.3
same,drug sensitivity score,FMOC04,5.3
same,drug sensitivity score,FMOC03,7.1
same,drug sensitivity score,FMOC25_1,3.9
same,drug sensitivity score,FMOC09,5.1
same,drug sensitivity score,FMOC02_3,9.5
same,drug sensitivity score,FMOC17,7
same,drug sensitivity score,FMOC27,5.2
same,drug sensitivity score,FMOC02_1,6.6
same,drug sensitivity score,FMOC22,5.7
Cn1cc(C[C@@H](N)C(=O)O)c2ccccc21 [1-methyl-D-tryptophan],drug sensitivity score,FMOC28,0.5
same,drug sensitivity score,FMOC02_2,0
same,drug sensitivity score,FMOC06,0
same,drug sensitivity score,FMOC25_2,0
same,drug sensitivity score,FMOC14,0
same,drug sensitivity score,FMOC11,0
same,drug sensitivity score,FMOC24,0
same,drug sensitivity score,FMOC04,0
same,drug sensitivity score,FMOC03,0
same,drug sensitivity score,FMOC25_1,0
same,drug sensitivity score,FMOC09,0.2
same,drug sensitivity score,FMOC02_3,0
same,drug sensitivity score,FMOC17,0
same,drug sensitivity score,FMOC27,0
same,drug sensitivity score,FMOC02_1,0
same,drug sensitivity score,FMOC22,0
O=C(NC[C@H](O)CN1CCc2ccccc2C1)c1cc(NC2COC2)ncn1,drug sensitivity score,FMOC28,0
same,drug sensitivity score,FMOC02_2,0
same,drug sensitivity score,FMOC06,0
same,drug sensitivity score,FMOC25_2,0.2
same,drug sensitivity score,FMOC14,0
same,drug sensitivity score,FMOC11,0
same,drug sensitivity score,FMOC24,0.5
same,drug sensitivity score,FMOC04,0
same,drug sensitivity score,FMOC03,0
same,drug sensitivity score,FMOC25_1,1
same,drug sensitivity score,FMOC09,0.3
same,drug sensitivity score,FMOC02_3,1.3
same,drug sensitivity score,FMOC17,0
same,drug sensitivity score,FMOC27,1.1
same,drug sensitivity score,FMOC02_1,0
same,drug sensitivity score,FMOC22,1.8
